Assay [1] concerns Sprague Dawley rats. The experiment in a line: Capsaicin induced secondary mechanical hyperalgesia model. The assay is classed as in vivo. The note with it: rat, 60 minutes before testing, secondary mechanical hyperalgesia 180 minutes after capsaicin, von Frey filaments. The method, then: (ii) In Vivo Data—Capsaicin Induced Secondary Mechanical Hyperalgesia Model:
Sprague Dawley rats were briefly restrained, and capsaicin was administered at 10 μg in 10 μL of vehicle by intraplantar injection into the center of the right hind paw. Secondary mechanical hyperalgesia (SMH) was measured at the heel away from the site of injection 180 minutes following capsaicin exposure. Compounds and gabapentin (positive control), were administered p.o. 60 minutes before testing (2 hours after capsaicin) or i.p. 30 minutes before testing (2.5 hours after capsaicin). SMH was measured using calibrated von Frey filaments (Stoelting, Woodale, Ill.). Following the 1 hour habituation in the testing room, rats were moved to individual plexiglass chambers that sit on top of a wire mesh to allow for access for stimulation of the plantar surface of the hind paws. Rats were allowed to acclimate to the new chambers for 15 minutes before the onset of testing. The paw withdrawal threshold was determined by increasing and decreasing stimulus intensity (force: g) and calculated using Dixon's up-down method (Chaplan, S. R.; Bach, F. W.; Pogrel, J. W.; Chung, J. M.; Yaksh, T. L.; Quantitative assessment of tactile allodynia in the rat paw. J. Neuroscience Methods 1994, 53(1), 55-63). The filaments (maximum force of 15.0 g) were held in place for 8 seconds or until there was a withdrawal response from the mechanical stimulation.

Assay [2] concerns the target T1, Human Cav3.2 Channels (Homo sapiens, UniProt O95180).
T1 construct: expressed in transfected cells
The experiment in a line: Electrophysiologic (whole-cell patch-clamp) assessment of calcium channel activity in HEK293 cells stably expressing hCav3.2. The assay is classed as cell-based. The note with it: −77 mV, geometric mean, read-out: Human Cav3.2 −77 mV IC50 (μM) GeoMean. The method in brief:
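HEK293 cells stably expressing hCav3.2, whole-cell patch clamp; external 5 mM CaCl2 with CsCl/TEA-Cl, pH 7.2; Cs-based internal with 4 mM Mg2ATP. Two-pulse protocol: 8 s prepulse at −100 mV or ~−75 mV, then test pulse to −30 mV. Cumulative antagonist additions, 5 min each; responses normalized to DMSO vehicle.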
(Patch clamp records ionic current or voltage across a cell membrane.)

SMILES strings stand for the structures. A value given as a limit tells only on which side of the number the result lay.

T1 sequence (O95180 whole entry): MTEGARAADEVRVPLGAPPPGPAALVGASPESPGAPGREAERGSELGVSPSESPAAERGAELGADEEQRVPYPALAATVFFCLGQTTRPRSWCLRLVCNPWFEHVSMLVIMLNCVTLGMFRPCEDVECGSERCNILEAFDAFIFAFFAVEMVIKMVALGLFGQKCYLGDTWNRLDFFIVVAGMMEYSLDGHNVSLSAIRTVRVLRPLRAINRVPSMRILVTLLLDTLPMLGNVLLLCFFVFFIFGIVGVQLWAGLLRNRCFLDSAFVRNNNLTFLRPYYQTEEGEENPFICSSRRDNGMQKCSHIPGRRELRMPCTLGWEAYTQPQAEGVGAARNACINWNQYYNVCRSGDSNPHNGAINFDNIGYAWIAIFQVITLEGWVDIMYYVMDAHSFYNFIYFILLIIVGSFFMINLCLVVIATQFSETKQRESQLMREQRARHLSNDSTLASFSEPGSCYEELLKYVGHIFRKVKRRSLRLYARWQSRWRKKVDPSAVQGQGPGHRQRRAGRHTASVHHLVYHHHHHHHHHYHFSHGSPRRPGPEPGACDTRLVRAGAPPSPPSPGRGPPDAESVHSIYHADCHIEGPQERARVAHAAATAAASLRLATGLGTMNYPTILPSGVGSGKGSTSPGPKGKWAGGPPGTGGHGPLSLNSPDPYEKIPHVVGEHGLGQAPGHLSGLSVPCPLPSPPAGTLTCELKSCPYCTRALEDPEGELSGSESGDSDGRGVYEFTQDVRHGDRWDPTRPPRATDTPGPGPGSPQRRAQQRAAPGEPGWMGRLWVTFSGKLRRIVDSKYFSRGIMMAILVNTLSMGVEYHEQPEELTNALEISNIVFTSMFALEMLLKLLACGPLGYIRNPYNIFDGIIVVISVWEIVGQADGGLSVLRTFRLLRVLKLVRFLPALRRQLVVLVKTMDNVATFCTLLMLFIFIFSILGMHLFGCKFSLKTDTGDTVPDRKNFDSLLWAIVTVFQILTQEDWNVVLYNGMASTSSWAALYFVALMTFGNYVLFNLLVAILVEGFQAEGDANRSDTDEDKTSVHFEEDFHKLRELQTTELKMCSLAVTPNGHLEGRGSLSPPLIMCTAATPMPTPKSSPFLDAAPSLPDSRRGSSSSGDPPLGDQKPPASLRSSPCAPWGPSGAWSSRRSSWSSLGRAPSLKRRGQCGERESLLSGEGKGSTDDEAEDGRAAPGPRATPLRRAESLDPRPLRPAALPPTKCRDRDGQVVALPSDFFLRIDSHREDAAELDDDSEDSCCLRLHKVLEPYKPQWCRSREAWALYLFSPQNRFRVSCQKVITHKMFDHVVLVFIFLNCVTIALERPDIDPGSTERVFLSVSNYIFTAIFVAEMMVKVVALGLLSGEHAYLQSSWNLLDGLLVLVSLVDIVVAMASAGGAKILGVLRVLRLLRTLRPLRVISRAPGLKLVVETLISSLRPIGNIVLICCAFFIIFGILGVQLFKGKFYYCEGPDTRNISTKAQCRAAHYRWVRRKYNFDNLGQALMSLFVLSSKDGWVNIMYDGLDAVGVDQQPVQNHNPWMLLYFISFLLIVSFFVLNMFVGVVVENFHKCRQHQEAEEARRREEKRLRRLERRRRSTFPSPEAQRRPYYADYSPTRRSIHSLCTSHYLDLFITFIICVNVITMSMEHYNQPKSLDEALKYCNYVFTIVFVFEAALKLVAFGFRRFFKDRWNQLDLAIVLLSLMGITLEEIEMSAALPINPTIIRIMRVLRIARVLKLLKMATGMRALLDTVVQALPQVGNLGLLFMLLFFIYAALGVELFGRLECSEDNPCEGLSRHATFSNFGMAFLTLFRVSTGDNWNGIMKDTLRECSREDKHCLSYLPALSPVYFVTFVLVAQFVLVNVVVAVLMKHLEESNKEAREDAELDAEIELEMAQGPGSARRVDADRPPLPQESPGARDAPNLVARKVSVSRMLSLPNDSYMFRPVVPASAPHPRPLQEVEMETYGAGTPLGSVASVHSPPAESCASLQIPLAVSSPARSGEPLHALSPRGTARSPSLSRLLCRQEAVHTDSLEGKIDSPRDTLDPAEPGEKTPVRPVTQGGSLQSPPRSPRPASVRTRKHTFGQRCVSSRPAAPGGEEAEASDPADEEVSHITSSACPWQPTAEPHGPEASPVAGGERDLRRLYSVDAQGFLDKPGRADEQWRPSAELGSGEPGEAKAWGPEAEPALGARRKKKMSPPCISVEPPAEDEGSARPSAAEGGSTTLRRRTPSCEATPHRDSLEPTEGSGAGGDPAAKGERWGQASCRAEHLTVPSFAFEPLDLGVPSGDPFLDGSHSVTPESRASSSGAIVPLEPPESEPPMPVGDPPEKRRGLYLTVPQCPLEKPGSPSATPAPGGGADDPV

Take `O=C(c1cccc(S(=O)(=O)Nc2ccccc2F)c1)N1CCN2CCC[C@@H]2C1` [Example 2, N-(2-fluorophenyl)-3-[(8aR)-hexahydropyrrolo[1,2-a]pyrazin-2(1H)-ylcarbonyl]benzenesulfonamide]: the “Inhibition to Pain Response, % inhibition @ 30 mg/kg p.o.” value in assay [1] is listed as 58%. For the same compound, the half-inhibitory concentration (IC50) in assay [2] is 10.6 µM. For `O=C(c1cccc(S(=O)(=O)Nc2cccc(F)c2)c1)N1CCN2CCC[C@H]2C1` [Example 3, N-(3-fluorophenyl)-3-[(8aS)-hexahydropyrrolo[1,2-a]pyrazin-2(1H)-ylcarbonyl]benzenesulfonamide], the “Inhibition to Pain Response, % inhibition @ 30 mg/kg p.o.” value in assay [1] is recorded as 44%. Besides, the IC50 in assay [2] stood at 5.9 µM.

On to `O=C(c1cccc(S(=O)(=O)Nc2c(F)cccc2F)c1)N1CCN2CCC[C@@H]2C1` [Example 13, N-(2,6-difluorophenyl)-3-[(8aR)-hexahydropyrrolo[1,2-a]pyrazin-2(1H)-ylcarbonyl]benzenesulfonamide], for which, in assay [1], the “Inhibition to Pain Response, % inhibition @ 30 mg/kg p.o.” value was found to be 37%. The IC50 in assay [2] turned out to be 5.6 µM. In the case of `O=C(c1cc(S(=O)(=O)Nc2ccccc2F)c(F)cc1Cl)N1CCN2CCC[C@@H]2C1` [Example 20, 4-chloro-2-fluoro-N-(2-fluorophenyl)-5-[(8aR)-hexahydropyrrolo[1,2-a]pyrazin-2(1H)-ylcarbonyl]benzenesulfonamide], the “Inhibition to Pain Response, % inhibition @ 30 mg/kg p.o.” value in assay [1] was 43%. Moreover, the IC50 in assay [2] came to 6 µM. With `O=C(c1cccc(S(=O)(=O)Nc2ccc(C(F)(F)F)cc2)c1)N1CCN2CCCCC2C1` (stereo not shown) [Example 37, 3-(octahydro-2H-pyrido[1,2-a]pyrazin-2-ylcarbonyl)-N-[4-(trifluoromethyl)phenyl]benzenesulfonamide], the “Inhibition to Pain Response, % inhibition @ 30 mg/kg p.o.” value in assay [1] was determined as 63%. Further, the IC50 in assay [2] is 1.1 µM. As to `O=C(c1cc(S(=O)(=O)Nc2ccccc2F)c(Cl)cc1Cl)N1CCN2CCC[C@@H]2C1` [Example 64, 2,4-dichloro-N-(2-fluorophenyl)-5-[(8aR)-hexahydropyrrolo[1,2-a]pyrazin-2(1H)-ylcarbonyl]benzenesulfonamide], in assay [1], the “Inhibition to Pain Response, % inhibition @ 30 mg/kg p.o.” value stood at 57%. Further, in assay [2], the 50% inhibitory concentration (IC50) was 1.7 µM. Regarding `O=C(NC1CC1)c1cc(S(=O)(=O)N2CCN3CCC[C@H]3C2)c(F)cc1Cl` [Example 83, 2-chloro-N-cyclopropyl-4-fluoro-5-[(8aS)-hexahydropyrrolo[1,2-a]pyrazin-2(1H)-ylsulfonyl]benzamide], the concentration for half-maximal inhibition (IC50) in assay [2] is more than 10 µM.

In general, IC50 refers to the concentration at which inhibition is half-maximal.

For the origin of these results see patent publication US8741899B2, “(4-chloro-2-fluoro-N-(2-fluorophenyl)-5-[(8aR)-hexahydropyrrolo-[1,2-a]pyrazin-2(1H)-ylcarbonyl]-benzenesulfonamide, and pharmaceutically acceptable salts thereof” (AbbVie Inc., priority 2009, dated 2014).
